This note sets out measurements from patent US12690589B2, “Herbicidal compositions comprising pyroxasulfone” (BASF SE, priority 2024, dated 2026).

Values joined by “and” are separate entries in the source; they are usually repeats but may differ in a detail not shown here. Equal values may be shown once.

Holding throughout (experiment): Post-emergence application in field trials, herbicidal activity (damage scale 0 to 100%)
Common to all, as to assay type: in vivo

Assay [1] concerns Senecio vulgaris (SENVU). Conditions: growth stage 61-62, height 25-30 cm. The gist of the method: (§1)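 Field sites with natural or seeded weeds were sprayed post-emergence via flat fan nozzles in 200 l/ha water plus 0.25 v/v % MSO adjuvant, solo or mixed with pyroxasulfone and other partners. Damage was scored 0–100% versus untreated plants at indicated DAT. Colby expected values were used to judge synergy.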

Assay [2] has as its system Glycine max (GLXMA). An outline of the steps: as §1
Assay [3] has as its system Echinochloa colonum (ECHCO). The conditions noted are these: height 20-25 cm, 25 DAT, Table 3.2. How it is done: (§2) In the examples below, using the method of S. R. Colby (1967) “Calculating synergistic and antagonistic responses of herbicide combinations”, Weeds 15, p. 22ff., the value E, which is expected if the activity of the individual active compounds is only additive, was calculated:
(§3) [formula] • wherein • X=percent activity using active herbicide A at an application rate a; • Y=percent activity using active herbicide B (e.g. pyroxasulfone) at an application rate b; • E=expected activity (in %) by A+B at application rates a+b.
(§4) If the value found experimentally is higher than the value E calculated according to Colby, a synergistic effect is present.
(§5) On field test sites, natural weed infestation or seeded weeds were treated post-emergence of the weeds.
(§6) In the field trials, the weeds were treated as indicated below.
(§7) In the following experiments, the herbicidal activity for the individual herbicidal compositions (solo and mixture applications) was assessed at the indicated days after treatment (DAT). The assessments for the damage on undesired weeds caused by the composition was carried out using a scale from 0 to 100%, compared to the untreated control plants. Here, 0 means no damage and 100 means complete destruction of the plants.
(§8) Herbicide A-1 (300 g/l) and pyroxasulfone (85% WG) were, together with addition of 0.25 l/ha Dash® MSO Max as adjuvant, formulated in water as distribution medium (water volume 200 l/ha) and sprayed with commercial flat fan nozzles.

For assay [4], the system named is Amaranthus cruentus (AMACR). The conditions noted are these: height 20-25 cm. How it is done: as §2, §3, §4, §5, §6, §7, §8
The subject of assay [5] is Amaranthus hybridus (AMACH). The conditions noted are these: height 20-25 cm, 14 DAT, Table 3.1. How it is done: as §2, §3, §4, §5, §6, §7, §8
Assay [6] has as its system Sorghum vulgare (SORVU). The conditions noted are these: height 20-25 cm, 14 DAT, Table 3.1. How it is done: as §2, §3, §4, §5, §6, §7, §8
Assay [7] has as its system Digitaria horizontalis (DIGHO). Conditions: growth stage 25, height 5-10 cm, 21 DAT, Table 2.6. How it is done: as §2, §3, §4, §5, §6, §7
(§9) Herbicide A-1 (50 g/l) and pyroxasulfone (85% WG) were, together with addition of 0.5% MSO (methylated seed oil) as adjuvant, formulated in water as distribution medium (water volume 200 l/ha) and sprayed with commercial flat fan nozzles.

Assay [8] has as its system Eleusine indica (ELEIN). How it is done: as §2, §3, §4, §5, §6, §7, §9
The test system of assay [9] is Brachiaria plantaginea (BRAPL). Conditions: growth stage 21-25, height 10-15 cm, 20 DAT, Table 2.1. How it is done:
as §2, §3, §4, §5, §6, §7, §9

The test system of assay [10] is Panicum maximum (PANMA). The conditions noted are these: height 20-25 cm, 21 DAT, Table 2.3. How it is done: as §2, §3, §4, §5, §6, §7, §9
The subject of assay [11] is Echinochloa crus-galli (ECHCG). How it is done:
as §2, §3, §4, §5, §6, §7, §9

For assay [12], the system named is Amaranthus palmeri (AMAPA). The conditions noted are these: height 30 cm, 21 DAT, Table 1.1. How it is done:
as §2, §3, §4, §5, §6
In the following experiments, the herbicidal activity for the individual herbicidal compositions (solo and mixture applications) was assessed at the indicated days after treatment (DAT). The assessments for the damage on undesired weeds caused by the composition was carried out using a scale from 0 to 100%, compared to the untreated control plants. Here, 0 means no damage and 100 means complete destruction of the plants. […]

[13] abbreviates: 7 DAT, stage 12-13, height 7-11 cm, g ai/ha A-1 12.5, B 70, C-4 12.5.
The mark [14] stands for this setting: 42 DAT, stage 12-13, height 7-11 cm, g ai/ha A-1 18, B 70.
Where [15] appears, read: 42 DAT, stage 12-13, height 7-11 cm, g ai/ha A-1 18, B 90.
Setting [16] is: 7 DAT, stage 23-30, height 15-20 cm, g ai/ha A-1 12.5, B 70, C-12 252.
The mark [17] stands for this setting: 21 DAT, stage 23-30, height 15-20 cm, g ai/ha A-1 12.5, B 70, C-12 252.
Setting [18] is: 28 DAT, stage 23-30, height 15-20 cm, g ai/ha A-1 12.5, B 70, C-12 252.
Where [19] appears, read: Table 8.2, 21 DAT, stage 23-30, height 15-20 cm, g ai/ha A-1 18, B 70, C-12 1066.
Setting [20] is: Table 8.2, 21 DAT, stage 23-30, height 15-20 cm, g ai/ha A-1 18, B 90, C-12 1066.
The mark [21] stands for this setting: Table 8.3, 28 DAT, stage 23-30, height 15-20 cm, g ai/ha A-1 18, B 70, C-12 1066.
The mark [22] stands for this setting: Table 8.3, 28 DAT, stage 23-30, height 15-20 cm, g ai/ha A-1 18, B 90, C-12 1066.

With `CCOC(=O)COc1ccccc1Oc1nc(-n2c(=O)cc(C(F)(F)F)n(C)c2=O)c(F)cc1Cl` [A-1, ethyl 2-[2-[[3-chloro-5-fluoro-6-[3-methyl-2,6-dioxo-4-(trifluoromethyl)pyrimidin-1-yl]-2-pyridyl]oxy]phenoxy]acetate], the “% Herbicidal activity” value was 90% in [1] (A-1 12.5 g ai/ha, 7 DAT, Table 4.2); 40% in assay [1] (A-1 12.5 g ai/ha, 21 DAT, Table 4.4); 40% in [1] (A-1 18 g ai/ha, 21 DAT, Table 4.4); 90% in assay [2] (setting [13]); 95% in assay [2] (setting [14]); 95% in assay [2] (setting [15]). Also, the “% Herbicidal activity” value in assay [2] (GLXMA, growth stage 12-13, height 7-11 cm, A-1 12.5 g ai/ha, 7 DAT, Table 4.1) is given as 90%; in assay [2] (GLXMA, growth stage 12-13, height 7-11 cm, A-1 12.5 g ai/ha, 21 DAT, Table 4.3), 95%; in assay [2] (GLXMA, growth stage 12-13, height 7-11 cm, A-1 18 g ai/ha, 7 DAT, Table 4.1), 90%; in assay [2] (GLXMA, growth stage 12-13, height 7-11 cm, A-1 18 g ai/ha, 21 DAT, Table 4.3) it was 92%; in assay [3] (A-1 50 g ai/ha), 55%; in assay [4] (A-1 25 g ai/ha, 14 DAT, Table 3.1), 88%. Moreover, the “% Herbicidal activity” value was 89% in assay [4] (A-1 25 g ai/ha, 25 DAT, Table 3.2); 91% in assay [4] (A-1 50 g ai/ha, 14 DAT, Table 3.1); 91% in [4] (A-1 50 g ai/ha, 25 DAT, Table 3.2); 87% in [5] (A-1 50 g ai/ha); 88% in assay [6] (A-1 50 g ai/ha); 92% in [7] (A-1 50 g ai/ha). For the same compound, the “% Herbicidal activity” value stood at 53% in assay [8] (growth stage 21-25, height 5-10 cm, A-1 25 g ai/ha, 20 DAT, Table 2.1); 59% in assay [8] (growth stage 21-25, height 5-10 cm, A-1 50 g ai/ha, 20 DAT, Table 2.1); 94% in [8] (growth stage 23-25, height 3-5 cm, A-1 25 g ai/ha, 21 DAT, Table 2.6); 95% in [8] (growth stage 23-25, height 3-5 cm, A-1 50 g ai/ha, 21 DAT, Table 2.6); 52% in [8] (height 20-25 cm, A-1 25 g ai/ha, 21 DAT, Table 2.3); 49% in [9] (A-1 25 g ai/ha). The “% Herbicidal activity” value in assay [10] (A-1 25 g ai/ha) was 75%; in [11] (setting [16]), 30%; in assay [11] (setting [17]) it was 30%; in [11] (setting [18]), 30%; in assay [11] (ECHCG, height 20-25 cm, A-1 25 g ai/ha, 21 DAT, Table 2.3) it was 60%; in assay [11] (setting [19]) it was 30%. In addition, the “% Herbicidal activity” value in assay [11] (setting [20]) turned out to be 30%; in assay [11] (setting [21]) it was 30%; in assay [11] (setting [22]) it was 30%; in assay [12] (A-1 25 g ai/ha), 85%.

On to `Cn1nc(C(F)(F)F)c(CS(=O)(=O)C2=NOC(C)(C)C2)c1OC(F)F` [B, pyroxasulfone], for which the “% Herbicidal activity” value in [1] (B 70 g ai/ha, 7 DAT, Table 4.2) was 30%; in assay [1] (B 70 g ai/ha, 21 DAT, Table 4.4), 20% and 10%; in assay [1] (B 90 g ai/ha, 21 DAT, Table 4.4), 20%; in assay [2] (setting [13]), 0%; in [2] (setting [14]) it was 0%; in [2] (setting [15]) it was 0%. Besides, the “% Herbicidal activity” value in assay [2] (GLXMA, growth stage 12-13, height 7-11 cm, B 70 g ai/ha, 7 DAT, Table 4.1) came out at 0%; in [2] (GLXMA, growth stage 12-13, height 7-11 cm, B 70 g ai/ha, 21 DAT, Table 4.3), 0%; in [2] (GLXMA, growth stage 12-13, height 7-11 cm, B 90 g ai/ha, 7 DAT, Table 4.1), 0%; in assay [2] (GLXMA, growth stage 12-13, height 7-11 cm, B 90 g ai/ha, 21 DAT, Table 4.3), 0%; in assay [3] (B 120 g ai/ha), 12%; in [4] (B 120 g ai/ha, 14 DAT, Table 3.1) it was 13%. Moreover, the “% Herbicidal activity” value in assay [4] (B 120 g ai/ha, 25 DAT, Table 3.2) is recorded as 16%; in assay [5] (B 120 g ai/ha), 16%; in assay [6] (B 120 g ai/ha) it was 5%; in [7] (B 120 g ai/ha) it was 5%; in assay [8] (growth stage 21-25, height 5-10 cm, B 120 g ai/ha, 20 DAT, Table 2.1), 0%; in assay [8] (growth stage 23-25, height 3-5 cm, B 120 g ai/ha, 21 DAT, Table 2.6), 5%. For the same compound, the “% Herbicidal activity” value was found to be 0% in [8] (height 20-25 cm, B 120 g ai/ha, 21 DAT, Table 2.3); 0% in assay [9] (B 120 g ai/ha); 0% in assay [10] (B 120 g ai/ha); 10% in [11] (setting [16]); 10% in [11] (setting [17]); 10% in assay [11] (setting [18]). Further, the “% Herbicidal activity” value in assay [11] (ECHCG, height 20-25 cm, B 120 g ai/ha, 21 DAT, Table 2.3) worked out at 0%; in assay [11] (setting [19]) it was 0%; in assay [11] (setting [20]), 0%; in assay [11] (setting [21]), 0%; in assay [11] (setting [22]), 0%; in assay [12] (B 120 g ai/ha), 2%.

Consider `CP(=O)(O)CC[C@H](N)C(=O)O.N` [C-12, glufosinate-P-ammonium], for which the “% Herbicidal activity” value in assay [11] (setting [16]) is 70%; in assay [11] (setting [17]), 60%; in assay [11] (setting [18]), 60%; in [11] (setting [19]), 10%; in assay [11] (setting [20]), 10%; in assay [11] (setting [21]), 10%. The “% Herbicidal activity” value in assay [11] (setting [22]) was 10%.
